Experimental findings from patent US10030047B2 (Hoffmann-La Roche Inc., priority 2015, dated 2018) are described below.

Converted amounts (≈) assume the structure as drawn.

The assay concerns A. baumannii strain ATCC19606. Kind of assay: Minimum inhibitory concentration (MIC) determination, microbroth dilution (CLSI). Particulars: Acinetobacter baumannii; A. baumannii ATCC19606; CAMHB; read after 20 hours; >=80% growth inhibition; read-out: ATCC19606 MIC. In kind it is cell-based. Put shortly: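 After 20 h at 35±2 °C, MIC taken visually and by OD 600 nm as the lowest concentration giving ≥80% growth inhibition. Bacteria (~5×10^5 CFU/ml) were tested per CLSI microbroth dilution against twofold serial compound dilutions in cation-adjusted Mueller Hinton broth.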
In general terms: In broth dilution the organism is exposed to a series of concentrations in liquid medium.
What is called MIC is the lowest concentration that inhibits growth of the organism. Take `COc1cc(-c2cc(Cl)c3c(c2)CNC(=O)[C@H](Cc2c[nH]c4ccccc24)N(C)C(=O)[C@H](CCCCN)NC(=O)[C@H](CCCN)NCc2cccnc2S3)ccn1` [Example 102, (11S,14S,17S)-14-(4-Amino-butyl)-11-(3-amino-propyl)-25-chloro-17-(1H-indol-3-ylmethyl)-23-(2-methoxy-pyridin-4-yl)-16-methyl-2-thia-4,10,13,16,19-pentaaza-tricyclo[19.4.0.0*3,8*]pentacosa-1(25),3,5,7,21,23-hexaene-12,15,18-trione]: the MIC is 0.5 µg/mL (≈ 0.615 µM).
On to `CN1C(=O)[C@H](CCCCN)NC(=O)[C@H](CCC(N)=O)NCc2cccnc2Sc2c(Cl)cc(Cl)cc2CNC(=O)[C@@H]1Cc1c[nH]c2ccccc12` [Example 103, 3-[(11S,14S,17S)-14-(4-Amino-butyl)-23,25-dichloro-17-(1H-indol-3-ylmethyl)-16-methyl-12,15,18-trioxo-2-thia-4,10,13,16,19-pentaaza-tricyclo[19.4.0.0*3,8*]pentacosa-1(25),3,5,7,21,23-hexaen-11-yl]-propionamide], for which the minimal inhibitory concentration (MIC) came to 0.25 µg/mL (≈ 0.332 µM).
As to `CN1C(=O)[C@H](CCCCN)NC(=O)[C@H](CCCN)NCc2ncccc2Sc2c(Cl)ccc(Cl)c2CNC(=O)[C@@H]1Cc1c[nH]c2ccccc12` [Example 104, (11S,14S,17S)-14-(4-Amino-butyl)-11-(3-amino-propyl)-22,25-dichloro-17-(1H-indol-3-ylmethyl)-16-methyl-2-thia-7,10,13,16,19-pentaaza-tricyclo[19.4.0.0*3,8*]pentacosa-1(21),3,5,7,22,24-hexaene-12,15,18-trione], the minimum inhibitory concentration (MIC) amounted to 2 µg/mL (≈ 2.7 µM).
The figure for `Cc1cc(-c2cc(Cl)c3c(c2)CNC(=O)[C@H](Cc2c[nH]c4ccccc24)N(C)C(=O)[C@H](CCCCN)NC(=O)[C@H](CCCN)NCc2cccnc2S3)ccn1` [Example 105, (11S,14S,17S)-14-(4-Amino-butyl)-11-(3-amino-propyl)-25-chloro-17-(1H-indol-3-ylmethyl)-16-methyl-23-(2-methyl-pyridin-4-yl)-2-thia-4,10,13,16,19-pentaaza-tricyclo[19.4.0.0*3,8*]pentacosa-1(25),3,5,7,21,23-hexaene-12,15,18-trione] is 1 µg/mL (≈ 1.26 µM).
Consider `C[C@H](O)[C@@H]1NCc2cccnc2Sc2c(Cl)cc(Cl)cc2CNC(=O)[C@H](Cc2c[nH]c3ccccc23)N(C)C(=O)[C@H](CCCCN)NC1=O` [Example 106, (11S,14S,17S)-14-(4-Amino-butyl)-23,25-dichloro-11-((S)-1-hydroxy-ethyl)-17-(1H-indol-3-ylmethyl)-16-methyl-2-thia-4,10,13,16,19-pentaaza-tricyclo[19.4.0.0*3,8*]pentacosa-1(25),3,5,7,21,23-hexaene-12,15,18-trione], for which the MIC was 2 µg/mL (≈ 2.75 µM).
The figure for `CN1C(=O)[C@H](CCCCN)NC(=O)C(C)(C)NCc2cccnc2Sc2c(Cl)cc(Cl)cc2CNC(=O)[C@@H]1Cc1c[nH]c2ccccc12` [Example 107, (14S,17S)-14-(4-Amino-butyl)-23,25-dichloro-17-(1H-indol-3-ylmethyl)-11,11,16-trimethyl-2-thia-4,10,13,16,19-pentaaza-tricyclo[19.4.0.0*3,8*]pentacosa-1(25),3,5,7,21,23-hexaene-12,15,18-trione] is 8 µg/mL (≈ 11.3 µM); for `CN1C(=O)[C@H](CCCCN)NC(=O)[C@H](Cc2ccc3ccccc3c2)NCc2cccnc2Sc2c(Cl)cc(Cl)cc2CNC(=O)[C@@H]1Cc1c[nH]c2ccccc12` [Example 108, (11S,14S,17S)-14-(4-Amino-butyl)-23,25-dichloro-17-(1H-indol-3-ylmethyl)-16-methyl-11-naphthalen-2-ylmethyl-2-thia-4,10,13,16,19-pentaaza-tricyclo[19.4.0.0*3,8*]pentacosa-1(25),3,5,7,21,23-hexaene-12,15,18-trione] it is 16 µg/mL (≈ 19.4 µM).
The figure for `CN1C(=O)[C@H](CCCCN)NC(=O)[C@H](CCCN)NCc2cccnc2Sc2c(Cl)cc(-c3ccc(N)nc3)cc2CNC(=O)[C@@H]1Cc1c[nH]c2ccccc12` [Example 109, (11S,14S,17S)-14-(4-Amino-butyl)-11-(3-amino-propyl)-23-(6-amino-pyridin-3-yl)-25-chloro-17-(1H-indol-3-ylmethyl)-16-methyl-2-thia-4,10,13,16,19-pentaaza-tricyclo[19.4.0.0*3,8*]pentacosa-1(25),3(8),4,6,21,23-hexaene-12,15,18-trione] is 2 µg/mL (≈ 2.51 µM); for `CN1C(=O)[C@H](CCCCN)NC(=O)[C@H](CCCN)NCc2nccnc2Sc2c(Cl)ccc(Cl)c2CNC(=O)[C@@H]1Cc1c[nH]c2ccccc12` [Example 110, (11S,14S,17S)-14-(4-Amino-butyl)-11-(3-amino-propyl)-22,25-dichloro-17-(1H-indol-3-ylmethyl)-16-methyl-2-thia-4,7,10,13,16,19-hexaaza-tricyclo[19.4.0.0*3,8*]pentacosa-1(25),3,5,7,21,23-hexaene-12,15,18-trione] it is 0.5 µg/mL (≈ 0.675 µM).
Turning to `CN1C(=O)[C@H](CCCCN)NC(=O)[C@H](CCCN)NCc2ncccc2Sc2c(Cl)ccc(C(F)(F)F)c2CNC(=O)[C@@H]1Cc1c[nH]c2ccccc12` [Example 111, (11S,14S,17S)-14-(4-Amino-butyl)-11-(3-amino-propyl)-25-chloro-17-(1H-indol-3-ylmethyl)-16-methyl-22-trifluoromethyl-2-thia-7,10,13,16,19-pentaaza-tricyclo[19.4.0.0*3,8*]pentacosa-1(25),3(8),4,6,21,23-hexaene-12,15,18-trione], the minimal inhibitory concentration (MIC) came out at 1 µg/mL (≈ 1.29 µM).
As for `CN1C(=O)[C@H](CCCCN)NC(=O)[C@H](CCCN)NCc2ncccc2Sc2c(Cl)cc(C(F)(F)F)cc2CNC(=O)[C@@H]1Cc1c[nH]c2ccccc12` [Example 112, (11S,14S,17S)-14-(4-Amino-butyl)-11-(3-amino-propyl)-25-chloro-17-(1H-indol-3-ylmethyl)-16-methyl-23-trifluoromethyl-2-thia-7,10,13,16,19-pentaaza-tricyclo[19.4.0.0*3,8*]pentacosa-1(25),3,5,7,21,23-hexaene-12,15,18-trione], the figure is 0.5 µg/mL (≈ 0.647 µM); as for `CN1C(=O)[C@H](CCCCN)NC(=O)[C@H](CCCN)NCc2ccccc2Sc2c(ccnc2Cl)CNC(=O)[C@@H]1Cc1c[nH]c2ccccc12` [Example 113, (12S,15S,18S)-15-(4-Amino-butyl)-18-(3-amino-propyl)-4-chloro-12-(1H-indol-3-ylmethyl)-13-methyl-2-thia-5,10,13,16,19-pentaaza-tricyclo[19.4.0.0*3,8*]pentacosa-1(25),3,5,7,21,23-hexaene-11,14,17-trione], 2 µg/mL (≈ 2.84 µM).
As for `CN1C(=O)[C@H](CCCCN)NC(=O)[C@H](Cc2cccc3ccccc23)NCc2cccnc2Sc2c(Cl)cc(Cl)cc2CNC(=O)[C@@H]1Cc1c[nH]c2ccccc12` [Example 114, (11S,14S,17S)-14-(4-Amino-butyl)-23,25-dichloro-17-(1H-indol-3-ylmethyl)-16-methyl-11-naphthalen-1-ylmethyl-2-2-thia-4,10,13,16,19-pentaaza-tricyclo[19.4.0.0*3,8*]pentacosa-1(25),3,5,7,21,23-hexaene-12,15,18-trione], the figure is 32 µg/mL (≈ 38.9 µM).
